# Test results as given in US8877757B2, “Pyrazine derivatives and use as PI3K inhibitors” (Merck Serono SA, priority 2005, dated 2014).
# Assays:
# [1] = tested on: Akt phosphorylation in B cells; assay: IgM-induced Akt phosphorylation in B cell (human PBMC, flow cytometry); format: cell-based; conditions: 5 min, CD19+ IgM+ B cells in human PBMC, anti IgM for 5 minutes, read-out: IC50, inhibition of IgM-induced Akt Phosphorylation
# Experimental: Human PBMC were prepared from a Buffy coat (Geneve Hospital) after a Ficoll gradient (FICOLL-PAQUE Plus PHARMACIA ref: 17-1440-03).
# Cell concentration was adjusted to 10^6 cells per ml in RPMI (GIBCO Ref: 72400-21) without serum. Before stimulation, 90 μl of PBMC suspension was incubated with 10 μl of diluted compound in a 96 well round bottom plate for 20 minutes at 37° C.
# For B cell activation, 30 μl of Fab′2 Goat anti IgM (Jackson Immuno-research) at 10 μg/ml was added to each well. After 5 minutes, cell activation was stopped with 4% paraformaldehyde (10 minutes at room temperature).
# Fixed PBMC were then treated for 20 minutes with 0.15% Triton, washed twice with PBS and permeabilized with 50% methanol for 15 minutes.
# PBMC were washed twice in PBS, resuspended in: PBS-4% FCS and incubated with anti P-Akt (1/100 dilution) for one hour at room temperature.
# After one wash, PBMC were further stained for 30 minutes with a mixture of anti-CD19-PE (BD Biosciences), anti-IgM-FITC (BD Biosciences) and goat anti rabbit IgG-Alexa 647 (Molecular probe).
# After washing, PBMC (Peripheral Blood Mononuclear Cells) were analysed on a FACSCalibur instrument (BD Biosciences) equipped with a 633 helium-neon laser, or stored at 4° C. for further analysis. 510^3 B cells events were gathered per sample in the CD19 positive region.
# For the analysis, a threshold was applied on P-Akt histogram of CD 19+ IgM+ lymphocytes cells from the non-stimulated samples and the percentage of cells above this threshold was determined for each sample.
# [2] = molecular target: Human recombinant GST-PI3δ (Homo sapiens (Human), UniProt O00329); assay: PI3K induced-lipid phosphorylation scintillation proximity assay (neomycin-coated SPA beads); format: biochemical
# Source text: The efficacy of compounds of the invention in inhibiting the PI3K induced-lipid phosphorylation may be tested in the following binding assay.
# The assay combines the scintillation proximity assay technology (SPA, Amersham) with the capacity of neomycin (a polycationic antibiotic) to bind phospholipids with high affinity and specificity. The Scintillation Proximity Assay is based on the properties of weakly emitting isotopes (such as ^3H, ^125I, ^33P). Coating SPA beads with neomycin allows the detection of phosphorylated lipid substrates after incubation with recombinant PI3K and radioactive ATP in the same well, by capturing the radioactive phospholipids to the SPA beads through their specific binding to neomycin.
# To a 96 wells MTP containing 10 μl of the test compound of Formula (I) (solubilized in 10% DMSO; to yield a concentration of 100, 25, 5.0, 1.25, 0.312, 0.078, 0.0195, 0.00488, 0.00122 and 0.0003 μM of the test compound), the following assay components are added: 1) 10 μl of lipid micelles 2) 20 μl of Kinase buffer ([^33P]γ-ATP 162 μM/300 nCi, MgCl2 2.5 mM, DTT 2.5 mM, Na3VO4 25 μM in Hepes 40 mM, pH 7.4) and 3) 10 μl (100 ng) of Human recombinant GST-PI3δ (in Hepes 40 mM, pH 7.4, ethylenglycol 4%). After incubation at room temperature for 120 minutes, with gentle agitation, the reaction is stopped by addition of 200 μl of a solution containing 250 μg of neomycin-coated PVT SPA beads, ATP 60 mM and EDTA 6.2 mM in PBS. The assay is further incubated at room temperature for 60 minutes with gentle agitation to allow binding of phospholipids to neomycin-SPA beads. After precipitation of the neomycin-coated PVT SPA beads for 5 minutes at 1500×g, radioactive PtdIns(3)P is quantified by scintillation counting in a Wallac MicroBeta™ plate counter.
# The values indicated in Table I below refer to the IC50 (μM) with respect to PI3K, i.e. the amount necessary to achieve 50% inhibition of said target. Said values show a considerable inhibitory potency of pyrazine compounds with regard to PI3K.
# [3] = tested on: PKB/Akt phosphorylation in mast cells; assay: SCF-induced PKB/Akt phosphorylation in mast cells; format: cell-based, mice; conditions: Mast cell, 0.25 h; mast cells derived from mouse bone marrow, 20 ng/mL SCF for 15 minutes; read-out: IC50, inhibition of SCF-induced Akt Phosphorylation
# Experimental: Protocol: Primary bone marrow cells were isolated from 4-8 weeks old wild type mice and derived to mast cells by incubation with medium containing 20 ng/mL of stem cell factor (SCF) (PeproTech, Switzerland) and 20 ng/mL of IL-3 (PeproTech, Switzerland) for at least 4 weeks. Confirmation of the expression of mast cell specific surface markers was done by FACS analysis using antibodies against c-kit (cKit-PE mouse antibody; Pharmingen). Cells were maintained in culture in the presence of SCF and IL-3. To induce PKB/Akt phosphorylation, mast cells were resuspended at 2.5×10^6 cells/mL and starved in medium containing no SCF or IL-3 for 24 h. After preincubation with compounds or 1% DMSO for 20 minutes, cells were activated with 20 ng/mL of SCF for 15 minutes at 37° C., fixed in 1.5% paraformaldehyde for 20 minutes and permeabilised with 0.2% Triton X-100 for 10 minutes, at room temperature. PKB/Akt phosphorylation was visualized using phospho-Ser-473 specific Akt antibodies (Cell Signaling) and standard FACS protocols.
# Female Balb/c mice = assay: Passive cutaneous anaphylaxis (PCA); format: in vivo; conditions: 30 mg/kg oral route, 2 hours before challenge
# Experimental: Female Balb/c mice (Elevage Janvier) (8 week old) were intradermally injected by anti-DNP IgE (50 ng in 20 μl, id, 2 sites of injection) on their shaved backs. Twenty four hours later they received an intravenous injection of DNP-human serum albumin (50 μg/mouse) and Evans blue (25 mg/kg) by retroorbital injection. Thirty minutes later, the animals were sacrificed. The skin of the back was removed. The extravasated dye (punch diameter: 5 mm) was extracted from 2 punches by 0.4 ml of formamide and was quantified by fluorescence (E1: 585 nm, E2: 660 nm).
# Inhibitors are administered by oral route at the dose of 30 mg/kg 2 hours before the challenge of DNP-human serum albumin and Evans blue.
# Class I PI3-kinases = conditions: Fruman et al., 1998; read-out: IC50 against each of the various Class I PI3-kinases; cited from earlier work
# Sequence of Human recombinant GST-PI3δ (O00329 whole entry): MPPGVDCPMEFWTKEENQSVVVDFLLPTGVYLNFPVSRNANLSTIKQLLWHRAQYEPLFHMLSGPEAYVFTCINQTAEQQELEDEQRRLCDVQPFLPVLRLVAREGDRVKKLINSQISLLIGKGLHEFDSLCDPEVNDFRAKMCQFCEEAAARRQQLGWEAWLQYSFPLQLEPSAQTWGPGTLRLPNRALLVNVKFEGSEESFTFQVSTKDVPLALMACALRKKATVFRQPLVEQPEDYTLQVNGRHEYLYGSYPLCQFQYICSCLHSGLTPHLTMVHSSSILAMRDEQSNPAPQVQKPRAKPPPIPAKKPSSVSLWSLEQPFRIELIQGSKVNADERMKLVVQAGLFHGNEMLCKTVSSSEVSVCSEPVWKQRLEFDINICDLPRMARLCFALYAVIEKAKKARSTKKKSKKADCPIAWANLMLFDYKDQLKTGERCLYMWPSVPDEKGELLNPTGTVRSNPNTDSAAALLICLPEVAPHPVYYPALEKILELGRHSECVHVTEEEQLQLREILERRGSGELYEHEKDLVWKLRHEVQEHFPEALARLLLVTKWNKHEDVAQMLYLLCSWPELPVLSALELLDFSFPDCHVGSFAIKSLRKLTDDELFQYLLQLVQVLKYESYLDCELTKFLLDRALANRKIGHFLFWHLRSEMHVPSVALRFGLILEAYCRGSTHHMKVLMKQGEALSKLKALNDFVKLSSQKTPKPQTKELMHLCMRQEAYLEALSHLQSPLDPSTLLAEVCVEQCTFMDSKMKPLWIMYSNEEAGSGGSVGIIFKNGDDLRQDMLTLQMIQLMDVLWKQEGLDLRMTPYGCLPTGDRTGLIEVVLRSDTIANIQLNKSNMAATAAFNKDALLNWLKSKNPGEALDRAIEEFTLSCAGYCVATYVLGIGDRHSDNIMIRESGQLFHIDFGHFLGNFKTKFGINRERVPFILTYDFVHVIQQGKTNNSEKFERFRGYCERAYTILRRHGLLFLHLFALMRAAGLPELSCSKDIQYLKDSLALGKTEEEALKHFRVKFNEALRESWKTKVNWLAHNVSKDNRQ
IC50 [1],IC50 [2],IC50 [3],SMILES,inhibition of vascular permeability (Female Balb/c mice),IC50 (Class I PI3-kinases)
30 nM,80 nM,–,"COc1ccc(OC)c(Nc2nc3ccccc3nc2NS(=O)(=O)c2cn(C)cn2)c1 [Example 13, N-{3-[(2,5-dimethoxyphenyl)amino]quinoxalin-2-yl}-1-methyl-1H-imidazole-4-sulfonamide]",–,–
–,240 nM,–,"COc1ccc(OC)c(Nc2nc3ccccc3nc2NS(=O)(=O)c2ccc3c(c2)sc(=O)n3C)c1 [Example 29, N-{3-[(2,5-dimethoxyphenyl)amino]quinoxalin-2-yl}-3-methyl-2-oxo-2,3-dihydro-1,3-benzothiazole-6-sulfonamide]",–,–
21 nM,56 nM,1190 nM,"COc1ccc(OC)c(Nc2nc3ccccc3nc2NS(=O)(=O)c2cccnc2)c1 [Example 65, N-{3-[(2,5-dimethoxyphenyl)amino]quinoxalin-2-yl}pyridine-3-sulfonamide]",84%,–
–,73 nM,–,"COc1ccc(OC)c(Nc2nc3ncccc3nc2NS(=O)(=O)c2ccccc2)c1 [Example 86, N-{3-[(2,5-dimethoxyphenyl)amino]pyrido[2,3-b]pyrazin-2-yl}benzene sulfonamide]",–,–
16 nM,27 nM,180 nM,"COc1cc(Nc2nc3ccccc3nc2NS(=O)(=O)c2ccc(CN(C)C)cc2)cc(OC)c1 [Example 138, N-{3-[(3,5-dimethoxyphenyl)amino]quinoxalin-2-yl}-4-[(dimethylamino)methyl]benzenesulfonamide]",–,–
–,30 nM,–,"COc1cc(Nc2nc3ccccc3nc2NS(=O)(=O)c2cccc(C(=O)NCCCN(C)C)c2)cc(OC)c1 [Example 144, 3-[({3-[(3,5-dimethoxyphenyl)amino]quinoxalin-2-yl}amino)sulfonyl]-N-[3-(dimethylamino)propyl]benzamide]",–,–
–,–,–,COC[C@H]1OC(=O)c2coc3c2[C@@]1(C)C1=C(C3=O)[C@@H]2CCC(=O)[C@@]2(C)C[C@H]1OC(C)=O [Wortmannin],–,1 to 10 nM
